According to patent publication EP0271192A2, “Purine histamine H1 antagonists, their preparation and pharmaceutical compositions containing them” (AMERICAN HOME PRODUCTS CORPORATION, priority 1986, dated 1988):

Legend:
[1] = test system: histamine-induced death in guinea pigs; assay: Protection against histamine-induced death after oral pretreatment; type: in vivo
H₁-receptor [2] = molecular target: T1, H₁-receptor (Cavia porcellus, UniProt P31389); assay: Shift of the histamine dose-response curve in ileum tissue; type: cell-based, guinea pigs; conditions: ileum tissues
T1 construct: Fresh segments of terminal ileum immediately proximal to Peyer's patch, obtained from male Buckshire guinea pigs; from tissue; host or cells: guinea pig terminal ileum segments

H₁-receptor [3] = molecular target: T1, H₁-receptor; assay: Reduction of histamine-induced contraction of isolated guinea pig ileum; type: cell-based, guinea pigs; conditions: test drug 1 × 10⁻⁷M in the presence of histamine 1 × 10⁻⁶M; guinea pig terminal ileum; quadruplicate sets of tissues; read-out: percent reduction in tissue contraction
Experimental: The compounds of this invention were established to be histamine H₁-antagonists by subjecting them to the following standard test procedures for H₁-blocking activity:
Fresh segments of terminal ileum immediately proximal to Peyer's patch, obtained from male Buckshire guinea pigs, were suspended in 37°C Tyrode's solution in a tissue bath and aerated. The tissue segments were placed under one gram tension and allowed to equilibrate for one hour. Histamine was added to each tissue bath to a final concentration of 1 × 10⁻⁶M. The contraction response after it equilibrated was noted as grams tension. Test drug was added, in the presence of histamine, to each bath to a final concentration of 1 × 10⁻⁷M. The change in grams tension was noted and the percent reduction in grams tension calculated.

T1 sequence (P31389 whole entry): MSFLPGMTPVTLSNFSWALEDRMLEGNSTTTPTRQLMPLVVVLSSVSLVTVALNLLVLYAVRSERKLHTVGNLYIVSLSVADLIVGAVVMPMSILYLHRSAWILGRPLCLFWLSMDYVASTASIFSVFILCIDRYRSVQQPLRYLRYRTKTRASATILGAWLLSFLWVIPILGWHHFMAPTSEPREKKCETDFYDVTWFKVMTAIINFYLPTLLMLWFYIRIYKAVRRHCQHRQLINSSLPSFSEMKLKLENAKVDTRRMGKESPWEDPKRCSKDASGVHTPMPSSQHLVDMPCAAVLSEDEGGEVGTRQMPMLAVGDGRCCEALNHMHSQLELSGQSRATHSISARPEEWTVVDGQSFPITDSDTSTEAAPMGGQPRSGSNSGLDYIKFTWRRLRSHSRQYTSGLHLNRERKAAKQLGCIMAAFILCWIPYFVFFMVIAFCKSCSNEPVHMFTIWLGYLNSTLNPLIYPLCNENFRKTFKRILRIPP

| Compound | Percent Survival ([1]; 0.5 mg/kg p.o., 18 Hours pretreatment, Trial5) | Percent Survival ([1]; 0.5 mg/kg p.o., 18 Hours pretreatment, Trial 6) | Percent Survival ([1]; 1.0 mg/kg p.o., 1 Hour pretreatment, Trial 1) | Percent Survival ([1]; 1.0 mg/kg p.o., 1 Hour pretreatment, Trial 2) | Percent Survival ([1]; 1.0 mg/kg p.o., 1 Hour pretreatment, Trial 3) | Percent Survival ([1]; 1.0 mg/kg p.o., 2 Hours pretreatment, Trial 3) | Percent Survival ([1]; 1.0 mg/kg p.o., 2 Hours pretreatment, Trial 4) | Percent Survival ([1]; 1.0 mg/kg p.o., 18 Hours pretreatment, Trial5) | Percent Survival ([1]; 5.0 mg/kg p.o., 1 Hour pretreatment, Trial 1) | Percent Survival ([1]; 10.0 mg/kg p.o., 2 Hours pretreatment, Trial 4) | Kb (H₁-receptor [2]; calculated via formula from the dose-response curve shift at 10⁻⁸M compound, read-out: histamine H₁antagonist potency) | shift of histamine dose-response curve (H₁-receptor [2]; compound at 10⁻⁸M) | inhibition at 0.1 µM (H₁-receptor [3]) |
| --- | --- | --- | --- | --- | --- | --- | --- | --- | --- | --- | --- | --- | --- |
| Cn1c(=O)c2c(ncn2CCCN2CCC(OC(c3ccccc3)c3ccccc3)CC2)n(C)c1=O [Example 1, 7-[3-(4-Diphenylmethoxy)-1-piperidinyl]propyl-3,7-dihydro-1,3-dimethyl-1H-purine-2,6-dione] | 70% | 40% | 40% | 10% | 40% | 70% | 70% | 80% | 80% | 60% | 290 pM | marked, parallel shift of the curve to the right | 92% |
| Cn1c(=O)c2c(ncn2CCN2CCC(OC(c3ccc(F)cc3)c3ccc(F)cc3)CC2)n(C)c1=O [Example 4, 7-[2-[4-Bis(4-fluorophenyl)methoxy]-1-piperidinyl]ethyl-3,7-dihydro-1,3-dimethyl-1H-purine-2,6-dione] |  |  |  |  |  |  |  |  |  |  |  |  | 62% |
